Measurements taken from US9260425B2 (Genetech, Inc., priority 2011, dated 2016).

These compounds were tested against Pim-1 (Homo sapiens (Human), UniProt P11309) (assay: Pim kinase binding activity assay (Example 901), PIM-1 enzyme, Caliper microfluidic peptide phosphorylation). Details: 20 pM PIM-1, 10 μM ATP, 1 μM FAM-peptide, 90 minutes at room temperature.
Format: biochemical
Protocol: Pim Kinase Binding Activity
A fluorescent-labeled Pim-specific peptide substrate, was custom synthesized by American Peptide Company (Sunnyvale, Calif.). Reaction Buffer contained 10 mM HEPES, pH 7.2, 10 mM MgCl2, 0.01% Tween 20, 2 mM DTT. Termination Buffer contained 190 mM HEPES, pH 7.2, 0.015% Brij-35, 0.2% Coating Reagent 3 (Caliper Life Sciences, Hopkinton, Mass.), 20 mM EDTA. Separation Buffer contained 100 mM HEPES, pH 7.2, 0.015% Brij-35, 0.1% Coating Reagent 3, 1:200 Coating Reagent 8 (Caliper Life Sciences, Hopkinton, Mass.), 10 mM EDTA and 5% DMSO.
PIM reactions were carried out in a final volume of 10 μL per well in a 384-well plate. A standard enzymatic reaction, initiated by the addition of 5 μL 2×ATP and test compound to 5 μL of 2× enzyme and FAM-peptide, contained 20 pM PIM-1, 50 pM PIM-2, or 55 pM PIM-3, 1 μM FAM-peptide, and 10 μM ATP, in Reaction Buffer. After 90 minutes of incubation at room temperature, the phosphorylation reaction was stopped by the addition of 10 μL Termination Buffer. The product and substrate in each independent reaction were separated on a 12-sipper microfluidic chip (Caliper Life Sciences, Hopkinton, Mass.) run on a Caliper LC3000® (Caliper Life Sciences, Hopkinton, Mass.). The separation of product and substrate was optimized by choosing voltages and pressure using Caliper's Optimizer software (Hopkinton, Mass.). […] The product and substrate fluorophore were excited at 488 nm and detected at 530 nm. Substrate conversion was calculated from the electropherogram using HTS Well Analyzer software (Caliper Life Sciences, Hopkinton, Mass.). Ki values for the test compound were calculated.

Sequence of Pim-1 (P11309 whole entry): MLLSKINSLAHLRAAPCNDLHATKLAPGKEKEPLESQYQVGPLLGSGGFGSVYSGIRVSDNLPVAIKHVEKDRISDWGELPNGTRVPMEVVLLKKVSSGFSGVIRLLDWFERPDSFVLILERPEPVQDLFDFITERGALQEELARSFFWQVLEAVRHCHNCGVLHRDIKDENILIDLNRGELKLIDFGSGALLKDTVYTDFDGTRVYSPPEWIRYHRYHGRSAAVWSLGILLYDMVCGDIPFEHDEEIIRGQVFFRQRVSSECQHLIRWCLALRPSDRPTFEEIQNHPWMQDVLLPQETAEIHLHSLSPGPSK

Ki [nM] | SMILES
0.046 | N[C@@H]1CN(c2cccc(-c3n[nH]c4cnc(-c5cccnc5)cc34)n2)CC[C@@H]1F (relative stereo) [Example 452, cis-4-fluoro-1-(6-(5-(pyridin-3-yl)-1H-pyrazolo[3,4-c]pyridin-3-yl)pyridin-2-yl)piperidin-3-amine]
0.296 | N[C@@H]1CN(c2cccc(-c3n[nH]c4cnc(-c5cccnc5)cc34)n2)CC[C@H]1F (relative stereo) [Example 453, trans-4-fluoro-1-(6-(5-(pyridin-3-yl)-1H-pyrazolo[3,4-c]pyridin-3-yl)pyridin-2-yl)piperidin-3-amine]
0.55 | CCn1cc(-c2cc3c(-c4cccc(N5CC[C@@H](F)[C@H](N)C5)n4)n[nH]c3cn2)cn1 (relative stereo) [Example 462, trans-1-(6-(5-(1-ethyl-1H-pyrazol-4-yl)-1H-pyrazolo[3,4-c]pyridin-3-yl)pyridin-2-yl)-4-fluoropiperidin-3-amine]
0.063 | CCn1cc(-c2cc3c(-c4cccc(N5CC[C@H](F)[C@H](N)C5)n4)n[nH]c3cn2)cn1 (relative stereo) [Example 465, cis-1-(6-(5-(1-ethyl-1H-pyrazol-4-yl)-1H-pyrazolo[3,4-c]pyridin-3-yl)pyridin-2-yl)-4-fluoropiperidin-3-amine]
0.0079 | N[C@H]1CCCC(Nc2cccc(-c3n[nH]c4cnc(-c5cccnc5)cc34)n2)C1 (stereo in doubt) [Example 245, (1S,3S)—N1-(6-(5-(pyridin-3-yl)-1H-pyrazolo[3,4-c]pyridin-3-yl)pyridin-2-yl)cyclohexane-1,3-diamine]
190 | Cc1n[nH]c2cnc(-c3cccnc3)cc12 [Example 101, 3-methyl-5-(pyridin-3-yl)-1H-pyrazolo[3,4-c]pyridine]
302 | Cc1n[nH]c2cnc(-c3cn[nH]c3)cc12 [Example 102, 3-methyl-5-(1H-pyrazol-4-yl)-1H-pyrazolo[3,4-c]pyridine]
1300 | Cc1n[nH]c2cnc(-c3ccn[nH]3)cc12 [Example 103, 3-methyl-5-(1H-pyrazol-5-yl)-1H-pyrazolo[3,4-c]pyridine]
3000 | N[C@H]1CCCN(Cc2n[nH]c3cnc(-c4cccnc4)cc23)C1 [Example 104, (S)-1-((5-(pyridin-3-yl)-1H-pyrazolo[3,4-c]pyridin-3-yl)methyl)piperidin-3-amine]
3400 | N[C@@H]1CCCN(Cc2n[nH]c3cnc(-c4cccnc4)cc23)C1 [Example 105, (R)-1-((5-(pyridin-3-yl)-1H-pyrazolo[3,4-c]pyridin-3-yl)methyl)piperidin-3-amine]
1400 | NC1CCN(Cc2n[nH]c3cnc(-c4cccnc4)cc23)CC1 [Example 106, 1-((5-(pyridin-3-yl)-1H-pyrazolo[3,4-c]pyridin-3-yl)methyl)piperidin-4-amine]
3000 | N[C@H]1CCCN(Cc2n[nH]c3cnc(-c4cn[nH]c4)cc23)C1 [Example 107, (S)-1-((5-(1H-pyrazol-4-yl)-1H-pyrazolo[3,4-c]pyridin-3-yl)methyl)piperidin-3-amine]
1100 | NC1CCN(Cc2n[nH]c3cnc(-c4cn[nH]c4)cc23)CC1 [Example 108, l-((5-(1H-pyrazol-4-yl)-1H-pyrazolo[3,4-c]pyridin-3-yl)methyl)piperidin-4-amine]
3800 | c1cncc(-c2cc3c(CNC4CCNCC4)n[nH]c3cn2)c1 [Example 109, N-((5-(pyridin-3-yl)-1H-pyrazolo[3,4-c]pyridin-3-yl)methyl)piperidin-4-amine]
5.8 | Cc1n[nH]c2cnc(-c3cncc(N4CCC(N)CC4)n3)cc12 [Example 110, 1-(6-(3-methyl-1H-pyrazolo[3,4-c]pyridin-5-yl)pyrazin-2-yl)piperidin-4-amine]
4000 | N[C@H]1CCCN(Cc2n[nH]c3cnc(-c4cn[nH]c4)cc23)C1 [Example 111, (S)-1-((5-(1H-pyrazol-4-yl)-1H-pyrazolo[3,4-c]pyridin-3-yl)methyl)piperidin-3-amine]
3500 | Cc1n[nH]c2cnc(-c3cnccc3N3CCC[C@H](N)C3)cc12 [Example 112, (S)-1-(3-(3-methyl-1H-pyrazolo[3,4-c]pyridin-5-yl)pyridin-4-yl)piperidin-3-amine]
3200 | c1cncc(-c2cc3c(CNCC4CCNCC4)n[nH]c3cn2)c1 [Example 113, 1-(piperidin-4-yl)-N-((5-(pyridin-3-yl)-1H-pyrazolo[3,4-c]pyridin-3-yl)methyl)methanamine]
844 | Cc1n[nH]c2cnc(-c3cnn(C4COC4)c3)cc12 [Example 114, 3-methyl-5-(1-(oxetan-3-yl)-1H-pyrazol-4-yl)-1H-pyrazolo[3,4-c]pyridine]

Ki [nM] | SMILES
620 | Cc1n[nH]c2cnc(-c3cnccn3)cc12 [Example 118, 3-methyl-5-(pyrazin-2-yl)-1H-pyrazolo[3,4-c]pyridine]
1100 | Cc1n[nH]c2cnc(-c3cnccc3N3CCC[C@@H](N)C3)cc12 [Example 119, (R)-1-(3-(3-methyl-1H-pyrazolo[3,4-c]pyridin-5-yl)pyridin-4-yl)piperidin-3-amine]
4.78 | Cc1n[nH]c2cnc(-c3cncc(N4CCC[C@H](N)C4)n3)cc12 [Example 120, (S)-1-(6-(3-methyl-1H-pyrazolo[3,4-c]pyridin-5-yl)pyrazin-2-yl)piperidin-3-amine]
6.91 | Cc1n[nH]c2cnc(-c3cncc(N4CCC[C@@H](N)C4)n3)cc12 [Example 121, (R)-1-(6-(3-methyl-1H-pyrazolo[3,4-c]pyridin-5-yl)pyrazin-2-yl)piperidin-3-amine]
737 | Cc1n[nH]c2cnc(-c3cncc(F)c3)cc12 [Example 123, 5-(5-fluoropyridin-3-yl)-3-methyl-1H-pyrazolo[3,4-c]pyridine]
307 | NC(=O)c1cccc(-c2n[nH]c3cnc(-c4cccnc4)cc23)c1 [Example 125, 3-(5-(pyridin-3-yl)-1H-pyrazolo[3,4-c]pyridin-3-yl)benzamide]
15.9 | FC(F)(F)c1cccc(-c2n[nH]c3cnc(-c4cccnc4)cc23)c1 [Example 126, 5-(pyridin-3-yl)-3-(3-(trifluoromethyl)phenyl)-1H-pyrazolo[3,4-c]pyridine]
261 | Cc1n[nH]c2cnc(-c3cnn(C)c3)cc12 [Example 127, 3-methyl-5-(1-methyl-1H-pyrazol-4-yl)-1H-pyrazolo[3,4-c]pyridine]
1500 | NC1CCN(c2ccncc2-c2cc3c(-c4ccccc4F)n[nH]c3cn2)CC1 [Example 128, 1-(3-(3-(2-fluorophenyl)-1H-pyrazolo[3,4-c]pyridin-5-yl)pyridin-4-yl)piperidin-4-amine]
1500 | NC[C@@H]1CCN(c2ccncc2-c2cc3c(-c4ccccc4F)n[nH]c3cn2)C1 [Example 130, (S)-(1-(3-(3-(2-fluorophenyl)-1H-pyrazolo[3,4-c]pyridin-5-yl)pyridin-4-yl)pyrrolidin-3-yl)methanamine]
13.1 | Fc1cccc(-c2n[nH]c3cnc(-c4cccnc4)cc23)n1 [Example 131, 3-(6-fluoropyridin-2-yl)-5-(pyridin-3-yl)-1H-pyrazolo[3,4-c]pyridine]
130 | O=c1cccc(-c2n[nH]c3cnc(-c4cccnc4)cc23)[nH]1 [Example 132, 6-(5-(pyridin-3-yl)-1H-pyrazolo[3,4-c]pyridin-3-yl)pyridin-2(1H)-one]
5.57 | Cn1cc(-c2cc3c(-c4ccccc4)n[nH]c3cn2)cn1 [Example 133, 5-(1-methyl-1H-pyrazol-4-yl)-3-phenyl-1H-pyrazolo[3,4-c]pyridine]
826 | N#CCc1n[nH]c2cnc(-c3cccnc3)cc12 [Example 134, 2-(5-(pyridin-3-yl)-1H-pyrazolo[3,4-c]pyridin-3-yl)acetonitrile]
387 | Cn1cc(-c2cc3c(CC#N)n[nH]c3cn2)cn1 [Example 135, 2-(5-(1-methyl-1H-pyrazol-4-yl)1H-pyrazolo[3,4-c]pyridin-3-yl)acetonitrile]
8.69 | Fc1ccccc1-c1n[nH]c2cnc(-c3cn[nH]c3)cc12 [Example 136, 3-(2-fluorophenyl)-5-(1H-pyrazol-4-yl)-1H-pyrazolo[3,4-c]pyridine]
4.61 | c1ccc(-c2n[nH]c3cnc(-c4cn[nH]c4)cc23)cc1 [Example 137, 3-phenyl-5-(1H-pyrazol-4-yl)-1H-pyrazolo[3,4-c]pyridine]
577 | Fc1ccccc1-c1n[nH]c2cnc(-c3cncnc3)cc12 [Example 138, 3-(2-fluorophenyl)-5-(pyrimidin-5-yl)-1H-pyrazolo[3,4-c]pyridine]
255 | NC1CCCN(c2ccncc2-c2cc3c(-c4ccccc4F)n[nH]c3cn2)CC1 (stereo not drawn) [Example 139, 1-(3-(3-(2-fluorophenyl)-1H-pyrazolo[3,4-c]pyridin-5-yl)pyridin-4-yl)azepan-4-amine]

SMILES | Ki [nM]
Cc1n[nH]c2cnc(-c3cncnc3)cc12 [Example 115, 3-methyl-5-(pyrimidin-5-yl)-1H-pyrazolo[3,4-c]pyridine] | 3500
